Measurements reported in PubChem BioAssay AID608 (Sanford-Burnham Center for Chemical Genomics, 2007).
Where “and” joins values, the source holds several entries; their conditions need not be identical. Equal values may be shown once. Calls of active or inactive are those of the source. The rule behind the calls is not given here. Where a SMILES comes first, the peptide text is derived from it.

Each compound was assayed against Peptidyl-prolyl cis-trans isomerase FKBP1A (Homo sapiens) (UniProt P62942) (assay: FKBP12 binders, biophysical, NMR detection (AID 608)). Conditions: NMR binding, purified FKBP12.
Peptidyl-prolyl cis-trans isomerase FKBP1A (Homo sapiens), sequence (P62942 whole entry, looked up): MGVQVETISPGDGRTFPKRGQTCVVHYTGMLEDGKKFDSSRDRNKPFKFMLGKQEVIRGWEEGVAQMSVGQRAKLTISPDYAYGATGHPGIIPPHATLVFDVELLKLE
In the case of `COc1ccc(CN2CCOCC2)c(C)c1C`, the Kd is reported as > 4 mM (inactive).
In the case of `C/C=C(\C)C(=O)O[C@H]1C[C@@H](OC(C)=O)[C@@]2(C(=O)OC)CO[C@@H]3C2[C@]12CO[C@](O)(C(=O)OC)[C@H]2[C@](C)(C12O[C@@]1(C)[C@H]1C[C@@H]2OC2OC=C[C@@]21O)[C@@H]3O` (stereo partly specified), the Kd is reported as > 4 mM (inactive).
`COCCOc1nc2ccccc2nc1C` was tested, and the Kd was > 4 mM (inactive).
In the case of `COc1ccc(C(=O)O)cc1OC`, the Kd is reported as > 4 mM (inactive).
With `Cc1cc2ncn(S(=O)(=O)N3CCCCC3)c2cc1C` the Kd was > 4 mM (inactive).
With `Cc1cc(C)c(-c2cc(C(F)(F)F)no2)c(=O)[nH]1` the Kd was > 4 mM (inactive).
With `CN(C)S(=O)(=O)c1ccc(NC=O)cc1` the Kd was > 4 mM (inactive).
With `Cc1cc(C(F)(F)F)nn1CC(N)=O` the Kd was > 4 mM (inactive).
In the case of `Nc1cccc(S(=O)(=O)N2CCCC2)c1`, the Kd is reported as > 4 mM (inactive).
`Cc1ccc(SCc2cc(=O)n3[nH]cnc3n2)cc1` was tested, and the Kd was > 4 mM (inactive).
In the case of `C=C1C2=CC(=O)O[C@@H](c3ccoc3)[C@]2(C)CCC1[C@@]1(C)C=CC(=O)C(C)(C)[C@@H]1CC(=O)OC` (stereo partly specified), the Kd is reported as > 4 mM (inactive).
For `O=C(O)c1ccc(Oc2ccccc2)nc1`, the Kd was > 4 mM (inactive).
For `Cc1sc2nc(NCCO)[nH]c(=O)c2c1C`, the Kd was > 4 mM (inactive).
For `N=C1/C(=C\c2ccccc2)C(=O)N=C2SC=NN12`, the Kd was > 4 mM (inactive).
`CC(C)(C(N)=O)/[N+]([O-])=C\c1ccccc1` was tested, and the Kd was > 4 mM (inactive).
In the case of `COc1ccc2c(c1)C(NC(C)=O)C(=O)N2C` (stereo unspecified), the Kd is reported as > 4 mM (inactive).
In the case of `O=C1CNC(=O)N1Cc1ccc(Br)cc1`, the Kd is reported as > 4 mM (inactive).
With `COc1ccc2c(c1)CCCN2C(N)=O` the Kd was > 4 mM (inactive).
In the case of `O=c1c2ccccc2ncn1C1CCCCC1`, the Kd is reported as > 4 mM (inactive).
In the case of `CNC(=S)NCCN1CCOCC1`, the Kd is reported as > 4 mM (inactive).
In the case of `Cc1cc(C)n(-c2ccc(Cl)nn2)n1`, the Kd is reported as > 4 mM (inactive).
`OCc1ccc2ncccc2c1` was tested, and the Kd was > 4 mM (inactive).
`COC(=O)c1cccs1` was tested, and the Kd was > 4 mM (inactive).
`CS(=O)(=O)NC1CCN(Cc2ccccc2)CC1` was tested, and the Kd was > 4 mM (inactive).
For `CC(=O)N1CCc2cc(NC(=O)c3ccc(C)cc3)ccc21`, the Kd was > 4 mM (inactive).
For `COc1ccc2nc(NC(=O)c3cnccn3)sc2c1`, the Kd was > 4 mM (inactive).
With `Cc1cc(O)c(C)c(O)c1C(=O)O` the Kd was > 4 mM (inactive).
In the case of `NCc1ccc(CN2CCOCC2)cc1`, the Kd is reported as > 4 mM (inactive).
In the case of `c1ccc2nc3c(nc2c1)CCc1nonc1-3`, the Kd is reported as > 4 mM (inactive).
In the case of `Cc1cc(C)n(-c2nc(N)cc(=O)[nH]2)n1`, the Kd is reported as > 4 mM (inactive).
For `CCOC(=O)c1[nH]c(C)cc1C`, the Kd was > 4 mM (inactive).
With `O=C(NC(=S)NC1CCS(=O)(=O)C1)c1ccccc1` (stereo unspecified) the Kd was > 4 mM (inactive).
For `Cc1sc(N)c(C(N)=O)c1C`, the Kd was > 4 mM (inactive).
With `CCn1nnc(NC(=O)c2ccccc2Br)n1` the Kd was > 4 mM (inactive).
With `COC(=O)c1c(SC)nc(-c2ccccc2)[nH]c1=O` the Kd was > 4 mM (inactive).
`NCCC(=O)N[C@@H](Cc1cnc[nH]1)C(=O)O` was tested, and the Kd was > 4 mM (inactive).
`CC(=O)O[C@@H]1CC2C(C)(C)[C@H](O)C=C[C@]2(C)C2CC[C@]3(C)C(=CC(=O)O[C@H]3c3ccoc3)[C@@]21C` (stereo partly specified) was tested, and the Kd was > 4 mM (inactive).
For `CC(C)NS(=O)(=O)c1ccc(OCC(=O)N2CCOCC2)cc1`, the Kd was “inactive”.
For `CC(=O)c1cccc(NS(=O)(=O)N(C)C)c1`, the Kd was > 4 mM (inactive).
For `O=C(Nc1ccccc1)C(=O)NC1CC1`, the Kd was > 4 mM (inactive).
With `OC1CC(c2ccccc2)NC2(CCCC2)C1` (stereo unspecified) the Kd was > 4 mM (inactive).
With `NC(=O)C1CCN(C(=O)c2ccccc2F)CC1` the Kd was > 4 mM (inactive).
With `O=C(Nc1cnc2ccccn2c1=O)c1ccc(F)cc1` the Kd was > 4 mM (inactive).
For `COC(=O)c1ccc(/C=C2/NC(=S)NC2=O)cc1`, the Kd was > 4 mM (inactive).
`O=C(Nc1ccc2c(c1)OCO2)c1ccc(=O)[nH]n1` was tested, and the Kd was > 4 mM (inactive).
In the case of `Cc1ccc(C(=O)N2CCC(C(=O)O)CC2)cc1`, the Kd is reported as > 4 mM (inactive).
For `CCOC(=O)CC1Sc2ccccc2NC1=S` (stereo unspecified), the Kd was > 4 mM (inactive).
`CSc1nc(O)cc(=O)[nH]1` was tested, and the Kd was > 4 mM (inactive).
For `N#Cc1sc2nc3c(c(-c4cccnc4)c2c1N)CCC3`, the Kd was > 4 mM (inactive).
For `Cc1nc2sc3c(c2c(=N)n1N)CC(C)(C)OC3`, the Kd was > 4 mM (inactive).
In the case of `Nc1nc(-c2nc3ccccc3[nH]2)cs1`, the Kd is reported as 0.068 mM and 0.098 mM.
For `CCOC(=O)c1c(C)nc2cc(C)ccn12`, the Kd was > 4 mM (inactive).
`COc1ccc(NC2=NCC(C)S2)cc1` (stereo unspecified) was tested, and the Kd was > 4 mM (inactive).
For `O=S(=O)(N1CCOCC1)n1cnc2ccccc21`, the Kd was “inactive”.
With `CC1(C)N([O-])c2cc([N+](=O)[O-])ccc2[N+]1=O` the Kd was > 4 mM (inactive).
In the case of `O=C(Nc1ccon1)c1cc2c(s1)CCCC2`, the Kd is reported as > 4 mM (inactive).
`CC1(C)N=C2C(=[N+]1[O-])CCC/C2=N\O` was tested, and the Kd was > 4 mM (inactive).
In the case of `NS(=O)(=O)c1ccc(N=Cc2cccs2)cc1`, the Kd is reported as > 4 mM (inactive).
In the case of `O=S(=O)(NCc1ccco1)c1cccc2cccnc12`, the Kd is reported as > 4 mM (inactive).
In the case of `CCc1nnsc1C(=O)Nc1nccs1`, the Kd is reported as > 4 mM (inactive).
With `S=C(Cc1cccnc1)N1CCOCC1` the Kd was > 4 mM (inactive).
In the case of `CC(=O)OCC(OC(C)=O)C(OC(C)=O)C(OC(C)=O)C(OC(C)=O)C(COC(C)=O)OC(C)=O` (stereo unspecified), the Kd is reported as > 4 mM (inactive).
In the case of `OCc1ccc(N2CCOCC2)cc1`, the Kd is reported as > 4 mM (inactive).
For `NCC(=O)c1ccccc1`, the Kd was > 4 mM (inactive).
For `NCC1CN(Cc2ccccc2)CCO1` (stereo unspecified), the Kd was > 4 mM (inactive).
With `O=c1c(-c2cccs2)[n+]([O-])c2ccccc2n1O` the Kd was > 4 mM (inactive).
For `CC(=O)Nc1ccn(Cc2c(F)cccc2Cl)n1`, the Kd was > 4 mM (inactive).
In the case of `NC(=O)c1cc(N)cc(C(N)=O)c1`, the Kd is reported as > 4 mM (inactive).
With `CC(C)(O)[C@@H]1Cc2cc3ccc(=O)oc3cc2O1` the Kd was > 4 mM (inactive).
In the case of `COC(=O)NCc1cc2cc(Cl)ccc2[nH]1`, the Kd is reported as > 4 mM (inactive).
With `Oc1ccccc1C(=S)N1CCCCCC1` the Kd was > 4 mM (inactive).
For `CCCc1cc2c(c(NC(C)=O)n1)c(=O)oc1ccccc12`, the Kd was > 4 mM (inactive).
`COC[C@]12CN(C=O)C3[C@@H]4[C@H](OC)C1[C@]3(C1CC3(O)C(OC)C(O)C4(OC(C)=O)C1C3OC(=O)c1ccccc1)[C@@H](OC)C[C@H]2O` (stereo partly specified) was tested, and the Kd was > 4 mM (inactive).
With `CC(=O)Nc1cccs1` the Kd was > 4 mM (inactive).
With `c1cc2c(cc1[C@H]1OC[C@H]3[C@@H]1CO[C@H]3c1ccc3c(c1)OCO3)OCO2` the Kd was > 4 mM (inactive).
`Cc1nc2ccc(F)cc2cc1C(=O)NCc1ccco1` was tested, and the Kd was > 4 mM (inactive).
For `C/C(=N\NC(N)=S)C(=O)O`, the Kd was > 4 mM (inactive).
With `O=C1CC(=O)N(Cc2ccco2)C(=S)N1` the Kd was > 4 mM (inactive).
For `CC(C)(C)NC(=O)CN1C(=O)c2ccccc2S1(=O)=O`, the Kd was > 4 mM (inactive).
In the case of `Nc1ncc2[nH]cnc2n1`, the Kd is reported as > 4 mM (inactive).
In the case of `COc1ccc2nc(SCC(N)=O)[nH]c2c1`, the Kd is reported as > 4 mM (inactive).
For `CNC(=O)C(=O)Nc1ccc(F)cc1`, the Kd was > 4 mM (inactive).
In the case of `Cc1ccc(NS(=O)(=O)c2ccc(OCC(=O)N3CCOCC3)cc2)cc1`, the Kd is reported as “inactive”.
In the case of `O=[N+]([O-])c1ccc2c(c1)N([O-])C1(CCCCC1)[N+]2=O`, the Kd is reported as > 4 mM (inactive).
`COC(=O)CC1C(C)(C)C(OC(C)=O)[C@@H]2[C@@H](OC(C)=O)[C@]34O[C@@]2(O)[C@]1(C)C3CC[C@]1(C)C4=CC(=O)O[C@H]1c1ccoc1` (stereo partly specified) was tested, and the Kd was > 4 mM (inactive).
For `O=C1CCCN1C(=O)c1ccc(F)cc1`, the Kd was > 4 mM (inactive).
With `COCC(=O)OCn1nnc2ccccc2c1=O` the Kd was > 4 mM (inactive).
In the case of `OCc1ccc(-c2ccccn2)s1`, the Kd is reported as > 4 mM (inactive).
`CC(CCC(=O)O)[C@H]1CCC2C3C(C[C@H](O)[C@@]21C)[C@@]1(C)CC[C@@H](O)C[C@H]1C[C@H]3O` (stereo partly specified) was tested, and the Kd was > 4 mM (inactive).
For `Cn1c(=O)c2cn3ncccc3c2n(C)c1=O`, the Kd was > 4 mM (inactive).
With `O=C(Nc1ccccn1)c1cc(-n2cnnc2)ccc1Cl` the Kd was > 4 mM (inactive).
`O=C1NC(=O)/C(=C\c2ccncc2)S1` was tested, and the Kd was > 4 mM (inactive).
For `O=c1[nH]c2ccc(S(=O)(=O)NC3CC3)cc2[nH]1`, the Kd was > 4 mM (inactive).
`CN(C)S(=O)(=O)c1ccc(N2CCOCC2)nc1` was tested, and the Kd was > 4 mM (inactive).
`CCOCC(=O)NCc1n[nH]c(=O)c2ccccc12` was tested, and the Kd was > 4 mM (inactive).
In the case of `CC1=[N+]([O-])C2(N)CCc3c(no[n+]3[O-])C2(O)C1` (stereo unspecified), the Kd is reported as > 4 mM (inactive).
With `O=C(Nc1cccc(Cl)c1)c1cnn2cccnc12` the Kd was > 4 mM (inactive).
`O=C(NCc1cccs1)c1ccc2c(c1)OCCO2` was tested, and the Kd was > 4 mM (inactive).
In the case of `NCc1cccc2c1OCCO2`, the Kd is reported as > 4 mM (inactive).
`CC(=O)N[C@@H](CC(=O)O)C(=O)N[C@@H](CCC(=O)O)C(=O)O` (Ac-Asp-Glu-OH) was tested, and the Kd was > 4 mM (inactive).
`N#Cc1cnn(-c2ccc(Cl)cc2)c1N` was tested, and the Kd was > 4 mM (inactive).
For `CC1(C)CC[C@]2(C(=O)O)CC[C@]3(C)C(=CCC4[C@@]5(C)CC[C@@H](O)C(C)(C)C5CC[C@]43C)C2C1` (stereo partly specified), the Kd was > 4 mM (inactive).
With `Nc1cncc(C(=O)O)c1` the Kd was > 4 mM (inactive).
In the case of `COC(=O)CSc1n[nH]c(N)n1`, the Kd is reported as > 4 mM (inactive).
With `c1coc(-c2nc(-c3ccncc3)no2)c1` the Kd was > 4 mM (inactive).
`Cc1cc(C)cc(C(=O)N2CCC(C(N)=O)CC2)c1` was tested, and the Kd was > 4 mM (inactive).
`O=C(CNC(=O)c1cccs1)NC1=NCCS1` was tested, and the Kd was > 4 mM (inactive).
`C=C(C)[C@H]1COc2cc3oc(=O)ccc3cc2O1` was tested, and the Kd was > 4 mM (inactive).
`Nc1cc(C(=O)O)ccc1N1CCCCCC1` was tested, and the Kd was > 4 mM (inactive).
With `Cc1cccnc1NC1=NCC(C)S1` (stereo unspecified) the Kd was > 4 mM (inactive).
For `O=c1n(-c2cccc(Cl)c2)c(=O)n2n1CCC2`, the Kd was > 4 mM (inactive).
For `COCC(=O)Nc1c(C(N)=O)oc2ccccc12`, the Kd was > 4 mM (inactive).
In the case of `CSc1ccccc1NC(=O)Cn1c(-c2cscn2)nc2ccccc21`, the Kd is reported as > 4 mM (inactive).
In the case of `COc1cc(C)c2c(c1C=O)Oc1c(c(C)c(O)c3c1C(O)OC3=O)OC2=O` (stereo unspecified), the Kd is reported as > 4 mM (inactive).
For `Cn1cnc2c(=S)[nH]c(=O)n(Cc3ccccc3)c21`, the Kd was > 4 mM (inactive).
In the case of `CC(=O)Nc1cc(S(=O)(=O)N(C)C)ccc1Cl`, the Kd is reported as > 4 mM (inactive).
